“Also recorded” adds a separate entry of the source. Read-outs that look alike come from different tables or passages of the source.
Legend:
[1] = test system: phospholipase C; conditions: acute administration; 'it is known'; cited from earlier work
[2] = test system: pentamethylenetetrazole-induced convulsions in mice; format: in vivo
[3] = test system: spontaneous seizures in gerbils; assay: Spontaneous seizures in gerbils on immersion in water maze; format: in vivo, gerbil
Experimental: During the studies of behavioural responses of gerbils to adenosine receptor stimulation, animals were exposed to the water maze model of spatial learning and memory. The control group (n=15) was injected with the vehicle given i.p. for 6 weeks prior to water maze tests. Twenty-four hours after the last injection, animals were exposed to the swim task. Immersion of animals in the swim tank whose water was kept at 32° C. produced an immediate, long-lasting (up to 2 min) seizure complex that was presented as myoclonic convulsions, followed by a period of rigidity and hind-limb extension.

[4] = test system: NMDA-evoked seizures in mice; format: in vivo
[5] = test system: spatial memory in gerbils; assay: Learning and memory in gerbils (Morris water maze) and open field; format: in vivo, gerbil; conditions: chronic
[6] = Rectal temperature of mice under light halothane anesthesia; conditions: 100 μg/kg acute (15 min) or chronic (24 h after last injection)
[7] = test system: forebrain ischemia in gerbils; assay: Forebrain ischemia in gerbils (bilateral carotid occlusion); format: in vivo, Mongolian gerbil
Experimental: Ischemia was effected by bilateral occlusion of the carotid arteries. Control gerbils were injected with saline (0.15 ml, i.p. for 10 days). During postischemic recovery, the rate of cerebral blood flow return to pre-ischemia level, neurological status, and survival were monitored. After 7 days, all surviving animals were perfused with formaldehyde for further studies of morphology and histochemistry.

[8] = test system: cardiovascular parameters in rats; format: in vivo, rat
Experimental: Rats (each weighing 300-340 g) were lightly anesthetized using 1.5-2% halothane. They were monitored for heart rate with a tail sensor and blood pressure using the tail cuff method. Peripheral blood flow (scalp) was monitored using a Perimed laser Doppler blood flow apparatus, with a narrow diameter probe placed in contact with the shaved skin above the center of the cranium. A small amount of clear gel was applied to maintain uniform transmission of light. Body temperature was measured using a rectal probe. Respiratory rate was also recorded. Measurements were made at regular intervals: every 2 min for the first ten min period, and every five min thereafter, until 30 min, at which time a 30 min interval was used, until 90 min. […] Drugs were dissolved in a vehicle consisting of an 80:20 mixture of Alkamuls EL-620 and saline, pH 7.4. […] When administered alone, the agonist was given at the beginning of the monitoring period. When coadministered with an antagonist, the antagonist was given at the beginning of the monitoring period, and the agonist was given after 10 min.

[9] = molecular target: T1, adenosine uptake sites in rat brain membranes (Rattus norvegicus, UniProt O54698); assay: Competition for [3H]NBTI binding at adenosine uptake sites in rat striatal membranes; conditions: read-out: Ki (NBTI); 0.3 nM [3H]NBTI, 30 min at 23° C., pH 7.4
T1 sequence (O54698 1-457): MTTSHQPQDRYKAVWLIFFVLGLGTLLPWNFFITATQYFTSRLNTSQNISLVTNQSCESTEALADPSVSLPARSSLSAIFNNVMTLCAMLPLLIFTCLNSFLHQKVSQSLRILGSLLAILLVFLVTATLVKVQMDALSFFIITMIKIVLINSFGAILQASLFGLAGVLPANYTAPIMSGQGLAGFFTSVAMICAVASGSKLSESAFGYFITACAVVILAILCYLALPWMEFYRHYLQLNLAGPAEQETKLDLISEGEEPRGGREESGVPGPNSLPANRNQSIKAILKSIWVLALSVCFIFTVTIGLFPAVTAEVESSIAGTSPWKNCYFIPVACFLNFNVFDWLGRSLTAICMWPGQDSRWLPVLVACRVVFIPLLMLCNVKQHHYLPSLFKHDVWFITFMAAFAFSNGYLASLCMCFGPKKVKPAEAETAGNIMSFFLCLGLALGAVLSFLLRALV

[10] = test system: electroconvulsive shock in mice; format: in vivo
[11] = test system: injection-induced anxiety in mice; assay: Anxiolytic effect in C57BL/J mice (responses to handling); format: in vivo, mouse (C57BL/J); conditions: chronic, 100 μg/kg
[12] = test system: locomotor activity in mice; assay: Locomotor activity in mice (open field, Digiscan activity monitor); format: in vivo, mouse (NIH Swiss)
[13] = Basal or systemic blood pressure (chronic use, malignant hypotension); format: in vivo
[14] = molecular target: T1, adenosine uptake sites in rat brain membranes; set-up: Rat striatal membranes, prepared as above; from tissue; host or cells: rat striatal membranes; conditions: read-out: Kd value used for [3H]NBTI Ki calculation; cited from earlier work
[15] = molecular target: T2, rat brain A1 receptors (Rattus norvegicus, UniProt P25099); assay: Displacement of [125I]APNEA binding in rat brain membranes; conditions: read-out: IC50 vs. displacement of specific binding of [125I]APNEA, Ki (A1) column of Table 2, footnote f
T2 construct: in rat brain membranes; from tissue; host or cells: rat brain membranes
T2 sequence (P25099 1-326): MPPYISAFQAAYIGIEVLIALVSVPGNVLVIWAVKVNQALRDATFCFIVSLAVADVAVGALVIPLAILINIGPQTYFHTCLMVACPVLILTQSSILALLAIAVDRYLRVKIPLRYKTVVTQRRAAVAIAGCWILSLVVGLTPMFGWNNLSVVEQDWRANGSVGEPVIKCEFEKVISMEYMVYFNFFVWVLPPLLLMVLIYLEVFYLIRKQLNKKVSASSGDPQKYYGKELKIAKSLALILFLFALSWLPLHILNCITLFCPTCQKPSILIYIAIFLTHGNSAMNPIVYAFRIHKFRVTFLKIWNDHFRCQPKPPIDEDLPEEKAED

[16] = acute IB-MECA 100 μg/kg + PMT 75 mg/kg
[17] = acute IB-MECA 100 μg/kg + PMT 75 mg/kg, P<0.05
[18] = chronic IB-MECA 100 μg/kg + PMT 75 mg/kg
[19] = chronic IB-MECA 100 μg/kg + PMT 75 mg/kg, P<0.05
[20] = acute IB-MECA 10 μg/kg + NMDA 60 mg/kg, NS
[21] = acute IB-MECA 50 μg/kg + NMDA 60 mg/kg, NS
[22] = acute IB-MECA 100 μg/kg + NMDA 60 mg/kg
[23] = acute IB-MECA 100 μg/kg + NMDA 60 mg/kg, P<0.05
[24] = chronic IB-MECA 100 μg/kg + NMDA 60 mg/kg, P<0.05
[25] = acute, 15 min prior to 10 min ischemia
[26] = chronic 10 days, 10 min ischemia

CNC(=O)[C@H]1O[C@@H](n2cnc3c(NCc4cccc(I)c4)ncnc32)[C@H](O)[C@@H]1O [Compound 42, N^6-(3-iodobenzyl)adenosine-5'-N-methyluronamide]
stimulation of phospholipase C and inositol 1,4,5-triphosphate production (in words) [1]: stimulation of phospholipase C and an enhanced production of inositol 1,4,5-triphosphate | onset of seizures and overall mortality after PMT (in words) ([2]; acute IB-MECA): significantly reduced | Impairment [2, 16]: 4.1 + 0.5 | Mortality 0.4-5 h [2, 16]: 0% | Mortality <15 min [2, 16]: 40% | Mortality >5 h [2, 16]: 10% | Mortality Overall [2, 17]: 50% | Onset of convulsive behavior [2, 17]: 112 s | Mortality 0.4-5 h [2, 18]: 10% | Mortality <15 min [2, 18]: 40% | Mortality >5 h [2, 18]: 0% | Onset of convulsive behavior [2, 18]: 120 s | Impairment [2, 19]: 3.3 + 0.5 | Mortality Overall [2, 19]: 50% | onset of seizures or neurological impairment after PMT (in words) ([2]; chronic IB-MECA + PMT 75 mg/kg): no significant effect on either the onset of seizures or neurological impairment | seizing activity (in words) ([3]; acute): worsen the seizing activity | seizing activity during swim task (in words) ([3]; chronic, 100 μg/kg i.p. daily for 6 wks): entirely eliminated seizing activity | incidence of seizures or degree of neurological impairment (in words) ([4]; acute IB-MECA 10 μg/kg + NMDA 60 mg/kg): no effect on either the incidence of seizures, or the degree of neurological impairment | % Convulsing [4, 20]: 50% | % Mortality at 24 h [4, 20]: 50% | Impairment (scale 1-6) [4, 20]: 2.7 + 0.6 | Ave. Latency to Seizures ([4]; acute IB-MECA 10 μg/kg + NMDA 60 mg/kg, P<0.05): 581 + 107 sec | % Mortality at 24 h [4, 21]: 27% | Impairment (scale 1-6) [4, 21]: 2.0 + 0.5 | % Convulsing ([4]; acute IB-MECA 50 μg/kg + NMDA 60 mg/kg, P<0.05): 10% | Ave. Latency to Seizures ([4]; acute IB-MECA 50 μg/kg + NMDA 60 mg/kg, only one animal): 12 s | % Convulsing [4, 22]: 0% | clinically manifested seizures (in words) [4, 22]: completely absent | duration of lethargic behaviour [4, 22]: 45 to 60 min | % Mortality at 24 h [4, 23]: 10% | Impairment (scale 1-6) [4, 23]: 1.4 + 0.4 | animals with tonic seizures ([4]; chronic IB-MECA 100 μg/kg + NMDA 60 mg/kg): 20% | % Convulsing [4, 24]: 30% | Ave. Latency to Seizures [4, 24]: 689 + 108 sec | Impairment (scale 1-6) [4, 24]: 1.8 + 0.4 | locomotor behavior in open field (in words) [5]: did not show any significant differences in locomotor behavior | average time to target ([5]; 100 μg/kg daily for 2 months, p<0.04 vs controls 40 sec): 30 s | rectal temperature (in words) [6]: no significant temperature differences | postischemic effect (in words) ([7]; acute (15 min) or chronic (10 days), 100 μg/kg, listed as IB-MECA): impairment of postischemic cortical blood flow rate, increased mortality rate, and extensive neuronal destruction in the hippocampus; also recorded: improved post-ischemic blood reflow, increased survival | surviving hippocampal neurons ([7]; acute (15 min), 10 min ischemia, 100 μg/kg): about 30% | survival for 7 days ([7]; acute, 100 μg/kg i.p. 15 min prior to 10 min ischemia): Ten percent | animals with irreversible coma ([7]; acute, 10 min ischemia): 40% | animals with seizures ([7]; acute, 10 min ischemia): 60% | mortality within 12 hr post-ischemia [7, 25]: 90% | time to full recovery of post-ischemic blood flow [7, 25]: over 3.5 hr | end-point mortality ([7]; acute, repeated experiment, FIG. 6, p<0.01): 90% | neurological side effects without ischemia (in words) ([7]; acutely and chronically treated): No neurological side effects were observed | animals with mild hyperactivity [7, 26]: 40% | survival for 7 days (in words) [7, 26]: All those gerbils | time to full recovery of post-ischemic blood flow [7, 26]: about 90 min | survival for 7 days ([7]; chronic 10 days, 20 min ischemia): 90% | surviving hippocampal neurons ([7]; chronic (10 days), 10 min ischemia, 100 μg/kg): > 80% | survival ([7]; chronic, repeated experiment, FIG. 6, p<0.01): 90% | duration of hypotensive effect ([8]; 0.1 mg/kg): 90 min | blood flow and respiratory rates (in words) ([8]; 0.1 mg/kg i.p.): not significant | blood pressure (in words) ([8]; 0.1 mg/kg i.p.): lowering of the blood pressure | heart rate (in words) ([8]; 0.1 mg/kg i.p.): little effect on heart rate | drop in body temperature ([8]; 0.1 mg/kg i.p., after about 30 min post-injection): approximately 0.5 °C | onset of hypotensive effect ([8]; 0.1 mg/kg, post-injection): ≤ 2 min | Ki [9]: 28200 nM | electroshock threshold voltage (in words) ([10]; acute IB-MECA): insignificant increase of threshold voltage | % Mortality at 24 h ([10]; acute IB-MECA 100 μg/kg + E.S.): 70% | Threshold voltage ([10]; acute IB-MECA 100 μg/kg + E.S.): 106 + 10 | electroshock threshold voltage / postictal mortality (in words) ([10]; chronic IB-MECA): no significant changes in threshold voltage; also recorded: postictal mortality was significantly reduced | Threshold voltage ([10]; chronic IB-MECA 100 μg/kg + E.S.): 118 + 13 | % Mortality at 24 h ([10]; chronic IB-MECA 100 μg/kg + E.S., p<0.05): 30% | injection-induced anxiety or stress responses (in words) [11]: almost no injection-induced anxiety or stress behavioral responses | reduction in locomotor activity at chosen dose ([12]; APEC 16 μg/kg, 3-IB-MECA 100 μg/kg i.p.): ca. 50% | minimal effective dose ([12]; Mus musculus, ip, read-out: threshold dose for locomotor depression): 0.01 mg/kg | dose of maximal locomotor depression ([12]; i.p.): about 0.1 mg/kg | scratching behavior (in words) ([12]; i.p.): rapid scratching behavior | locomotor measures (in words) ([12]; i.p., listed as 3-IB-MECA): Vertical activity, stereotype counts, and rotational movement were depressed in a dose-dependent manner; also recorded: average distance per move and average speed were not changed significantly | plateau of locomotor depression below control level ([12]; total distance traveled, higher doses): ca. 60% | basal or systemic blood pressure after administration ([13]; from about 70 mm Hg): about 90 mm Hg | increase in basal or systemic blood pressure ([13]; in vivo): 10-30%

O=[N+]([O-])c1ccc(CSc2ncnc3c2ncn3[C@@H]2O[C@H](CO)[C@@H](O)[C@H]2O)cc1 [[^3 H]NBTI]
Kd [14]: 0.15 nM

Nc1ccc(CCNc2ncnc3c2ncn3[C@@H]2O[C@H](CO)[C@@H](O)[C@H]2O)cc1I [[^125 I]APNEA, [^125 I]N^6-2-(4-aminophenyl)ethyladenosine]
IC50 [15]: 2.1 nM
